Reference: ChEMBL document CHEMBL2429726, “Gamma secretase modulators” (ACS Med Chem Lett, 2013)

How the values were obtained:
Rattus norvegicus = assay: Antialzheimer activity in CD rat assessed as reduction of amyloid beta42 level in CSF at 30 mg/kg, po after 3 hrs relative to control; type: functional; design: scale not given: the % may be the effect or the level left
Gamma-secretase = assay: Inhibition of gamma secretase-mediated amyloid beta42 production in HEK293 cells expressing APP after 5 hrs by sandwich immunoassay; type: cell-based, Homo sapiens

Row | IC50 (Gamma-secretase) [nM] | SMILES | Activity (Rattus norvegicus) [%]
1 | 39 | COc1cc(-c2noc3c2CCCC3Nc2ccc(F)cc2)ccc1-n1cnc(C)c1 (stereo unspecified) | 58
2 | 190 | COc1cc(-c2noc3c2CCCC3(O)c2cc(F)cc(F)c2)ccc1-n1cnc(C)c1 (stereo unspecified) | 20
3 | 29 | COc1cc(-c2noc3c2CCCC3NCc2cc(F)cc(F)c2)ccc1-n1cnc(C)c1 (stereo unspecified) | 20
